Laboratory results from the supplement of paper PMC10307832.

Columns and labels:
Assay in all cases: relative viability (nuclei count vs DMSO), 5 days (fraction); higher = more cells survive
[1] = compound: Cc1nc(C(=O)NCC(=O)O)c(O)c2ccc(Oc3ccccc3)cc12 [FG-4592] + C[C@@H](Oc1cc(-c2cnn(C3CCNCC3)c2)cnc1N)c1c(Cl)ccc(F)c1Cl [Crizotinib] (partner 1 µM)
Method in brief: (§1)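 Nuclei were stained with Hoechst during a one-step fixation (final 0.05% Triton X-100, 1% formaldehyde, 1 ug/ml Hoechst) carried out 5 days after dosing, then counted on 4× images. The cells, lung cancer lines in 1536-well plates, had been dosed by pin tool the day after seeding with one drug alone or a fixed anchor-drug dose plus five library-drug doses (not always all listed) in √10 steps. Relative viability is the nuclei count in treated wells divided by that in vehicle wells, and each value is the median of duplicate plates.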

[2] = compound: CC1=CC(=C(N1C2=CC=C(C=C2)Cl)C)C(=O)CN3CCCCC3 [IU1-47] + O=C(c1cc(Cc2n[nH]c(=O)c3ccccc23)ccc1F)N1CCN(C(=O)C2CC2)CC1 [Olaparib] (partner 8 µM)
Method in brief: as §1

[3] = compound: Cc1nc(C(=O)NCC(=O)O)c(O)c2ccc(Oc3ccccc3)cc12 [FG-4592] + COc1cccc2cc(-c3nc([C@H]4CC[C@H](C(=O)O)CC4)n4ncnc(N)c34)[nH]c12 [OSI-027] (partner 0.5 µM)
Method in brief: as §1

[4] = compound: Cc1nc(C(=O)NCC(=O)O)c(O)c2ccc(Oc3ccccc3)cc12 [FG-4592] + CC(=O)Nc1cccc(-n2c(=O)n(C3CC3)c(=O)c3c(Nc4ccc(I)cc4F)n(C)c(=O)c(C)c32)c1 [Trametinib] (partner 0.02 µM)
Method in brief: as §1

With EPLC-272H the relative viability ([1]; first compound 0.08 µM) was 0.844, the relative viability ([1]; first compound 0.253 µM) was 0.72 and the relative viability ([1]; first compound 0.8 µM) was 0.631. For the same cell line, the relative viability ([1]; first compound 2.53 µM) was 0.888, the relative viability ([1]; first compound 8 µM) was 0.873 and the relative viability ([2]; first compound 0.08 µM) was 0.77. For the same cell line, the relative viability ([2]; first compound 0.253 µM) was 0.867, the relative viability ([2]; first compound 0.8 µM) was 0.684 and the relative viability ([2]; first compound 2.53 µM) was 0.851. It also gave a relative viability ([2]; first compound 8 µM) of 0.92, a relative viability ([3]; first compound 0.08 µM) of 0.348 and a relative viability ([3]; first compound 0.253 µM) of 0.206. For the same cell line, the relative viability ([3]; first compound 0.8 µM) was 0.285, the relative viability ([3]; first compound 2.53 µM) was 0.29 and the relative viability ([3]; first compound 8 µM) was 0.232. For the same cell line, the relative viability ([4]; first compound 0.08 µM) was 0.288, the relative viability ([4]; first compound 0.253 µM) was 0.232 and the relative viability ([4]; first compound 0.8 µM) was 0.234. It also gave a relative viability ([4]; first compound 2.53 µM) of 0.303 and a relative viability ([4]; first compound 8 µM) of 0.308.
With NCI-H1915 the relative viability ([1]; first compound 0.08 µM) was 0.87, the relative viability ([1]; first compound 0.253 µM) was 0.883 and the relative viability ([1]; first compound 0.8 µM) was 0.922. It also gave a relative viability ([1]; first compound 2.53 µM) of 0.874, a relative viability ([1]; first compound 8 µM) of 0.905 and a relative viability ([2]; first compound 0.08 µM) of 0.251. For the same cell line, the relative viability ([2]; first compound 0.253 µM) was 0.267, the relative viability ([2]; first compound 0.8 µM) was 0.267 and the relative viability ([2]; first compound 2.53 µM) was 0.252. For the same cell line, the relative viability ([2]; first compound 8 µM) was 0.261, the relative viability ([3]; first compound 0.08 µM) was 0.521 and the relative viability ([3]; first compound 0.253 µM) was 0.59. For the same cell line, the relative viability ([3]; first compound 0.8 µM) was 0.683, the relative viability ([3]; first compound 2.53 µM) was 0.579 and the relative viability ([3]; first compound 8 µM) was 0.578. For the same cell line, the relative viability ([4]; first compound 0.08 µM) was 0.304, the relative viability ([4]; first compound 0.253 µM) was 0.266 and the relative viability ([4]; first compound 0.8 µM) was 0.274. For the same cell line, the relative viability ([4]; first compound 2.53 µM) was 0.287 and the relative viability ([4]; first compound 8 µM) was 0.258.
NCI-H2405 was tested, and the relative viability ([1]; first compound 0.08 µM) was 0.665, the relative viability ([1]; first compound 0.253 µM) was 0.657 and the relative viability ([1]; first compound 0.8 µM) was 0.878. The relative viability ([1]; first compound 2.53 µM) was 0.857, the relative viability ([1]; first compound 8 µM) was 0.87 and the relative viability ([2]; first compound 0.08 µM) was 0.876. The relative viability ([2]; first compound 0.253 µM) was 0.871, the relative viability ([2]; first compound 0.8 µM) was 0.956 and the relative viability ([2]; first compound 2.53 µM) was 0.91. For the same cell line, the relative viability ([2]; first compound 8 µM) was 0.945, the relative viability ([3]; first compound 0.08 µM) was 0.506 and the relative viability ([3]; first compound 0.8 µM) was 0.586. It also gave a relative viability ([3]; first compound 2.53 µM) of 0.518, a relative viability ([3]; first compound 8 µM) of 0.628 and a relative viability ([4]; first compound 0.08 µM) of 0.548. It also gave a relative viability ([4]; first compound 0.253 µM) of 0.57, a relative viability ([4]; first compound 0.8 µM) of 0.507 and a relative viability ([4]; first compound 2.53 µM) of 0.587. For the same cell line, the relative viability ([4]; first compound 8 µM) was 0.411.
For NCI-H322M, the relative viability ([1]; first compound 0.08 µM) was 0.924, the relative viability ([1]; first compound 0.253 µM) was 0.886 and the relative viability ([1]; first compound 0.8 µM) was 1.19. For the same cell line, the relative viability ([1]; first compound 2.53 µM) was 1.02, the relative viability ([1]; first compound 8 µM) was 0.815 and the relative viability ([2]; first compound 0.08 µM) was 0.838. The relative viability ([2]; first compound 0.253 µM) was 0.838, the relative viability ([2]; first compound 0.8 µM) was 0.813 and the relative viability ([2]; first compound 2.53 µM) was 0.845. The relative viability ([2]; first compound 8 µM) was 0.757, the relative viability ([3]; first compound 0.08 µM) was 0.507 and the relative viability ([3]; first compound 0.253 µM) was 0.543. The relative viability ([3]; first compound 0.8 µM) was 0.557, the relative viability ([3]; first compound 2.53 µM) was 0.488 and the relative viability ([3]; first compound 8 µM) was 0.469. For the same cell line, the relative viability ([4]; first compound 0.253 µM) was 0.482, the relative viability ([4]; first compound 0.8 µM) was 0.475 and the relative viability ([4]; first compound 2.53 µM) was 0.497. The relative viability ([4]; first compound 8 µM) was 0.438.
With NCI-H2170 the relative viability ([1]; first compound 0.08 µM) was 1.16, the relative viability ([1]; first compound 0.253 µM) was 1.14 and the relative viability ([1]; first compound 0.8 µM) was 1.24. The relative viability ([1]; first compound 2.53 µM) was 1.22, the relative viability ([1]; first compound 8 µM) was 0.909 and the relative viability ([2]; first compound 0.08 µM) was 0.705. It also gave a relative viability ([2]; first compound 0.253 µM) of 0.652, a relative viability ([2]; first compound 0.8 µM) of 0.634 and a relative viability ([2]; first compound 2.53 µM) of 0.693. It also gave a relative viability ([2]; first compound 8 µM) of 0.652, a relative viability ([3]; first compound 0.08 µM) of 0.788 and a relative viability ([3]; first compound 0.253 µM) of 0.66. For the same cell line, the relative viability ([3]; first compound 0.8 µM) was 0.652, the relative viability ([3]; first compound 2.53 µM) was 0.693 and the relative viability ([3]; first compound 8 µM) was 0.531. The relative viability ([4]; first compound 0.08 µM) was 0.874, the relative viability ([4]; first compound 0.253 µM) was 0.886 and the relative viability ([4]; first compound 0.8 µM) was 0.858. For the same cell line, the relative viability ([4]; first compound 2.53 µM) was 0.946 and the relative viability ([4]; first compound 8 µM) was 0.637.
In the case of NCI-H358, the relative viability ([1]; first compound 0.08 µM) is reported as 0.531, the relative viability ([1]; first compound 0.253 µM) is reported as 0.602 and the relative viability ([1]; first compound 0.8 µM) is reported as 0.703. For the same cell line, the relative viability ([1]; first compound 2.53 µM) was 0.704, the relative viability ([1]; first compound 8 µM) was 0.594 and the relative viability ([2]; first compound 0.08 µM) was 0.704. It also gave a relative viability ([2]; first compound 0.253 µM) of 0.784, a relative viability ([2]; first compound 0.8 µM) of 0.55 and a relative viability ([2]; first compound 2.53 µM) of 0.705. For the same cell line, the relative viability ([2]; first compound 8 µM) was 0.436, the relative viability ([3]; first compound 0.08 µM) was 0.695 and the relative viability ([3]; first compound 0.253 µM) was 0.664. It also gave a relative viability ([3]; first compound 0.8 µM) of 0.83, a relative viability ([3]; first compound 2.53 µM) of 0.702 and a relative viability ([3]; first compound 8 µM) of 0.572. For the same cell line, the relative viability ([4]; first compound 0.08 µM) was 0.138, the relative viability ([4]; first compound 0.253 µM) was 0.135 and the relative viability ([4]; first compound 0.8 µM) was 0.122. For the same cell line, the relative viability ([4]; first compound 2.53 µM) was 0.16 and the relative viability ([4]; first compound 8 µM) was 0.124.
Work on NCI-H838 yielded a relative viability ([1]; first compound 0.08 µM) of 0.795, a relative viability ([1]; first compound 0.253 µM) of 0.799 and a relative viability ([1]; first compound 0.8 µM) of 0.962. It also gave a relative viability ([1]; first compound 2.53 µM) of 0.941, a relative viability ([1]; first compound 8 µM) of 0.904 and a relative viability ([2]; first compound 0.08 µM) of 0.809. It also gave a relative viability ([2]; first compound 0.253 µM) of 0.799, a relative viability ([2]; first compound 0.8 µM) of 0.774 and a relative viability ([2]; first compound 2.53 µM) of 0.911. The relative viability ([2]; first compound 8 µM) was 0.58, the relative viability ([3]; first compound 0.08 µM) was 0.372 and the relative viability ([3]; first compound 0.253 µM) was 0.31. It also gave a relative viability ([3]; first compound 0.8 µM) of 0.389, a relative viability ([3]; first compound 2.53 µM) of 0.289 and a relative viability ([3]; first compound 8 µM) of 0.357. It also gave a relative viability ([4]; first compound 0.08 µM) of 0.497, a relative viability ([4]; first compound 0.253 µM) of 0.51 and a relative viability ([4]; first compound 0.8 µM) of 0.412. It also gave a relative viability ([4]; first compound 2.53 µM) of 0.473 and a relative viability ([4]; first compound 8 µM) of 0.46.
CAL-12T showed a relative viability ([1]; first compound 0.08 µM) of 0.664, a relative viability ([1]; first compound 0.253 µM) of 0.62 and a relative viability ([1]; first compound 0.8 µM) of 0.753. For the same cell line, the relative viability ([1]; first compound 2.53 µM) was 0.677, the relative viability ([1]; first compound 8 µM) was 0.585 and the relative viability ([2]; first compound 0.08 µM) was 0.705. The relative viability ([2]; first compound 0.253 µM) was 0.726, the relative viability ([2]; first compound 0.8 µM) was 0.747 and the relative viability ([2]; first compound 2.53 µM) was 0.797. It also gave a relative viability ([2]; first compound 8 µM) of 0.863, a relative viability ([3]; first compound 0.08 µM) of 0.829 and a relative viability ([3]; first compound 0.253 µM) of 0.663. For the same cell line, the relative viability ([3]; first compound 0.8 µM) was 0.642, the relative viability ([3]; first compound 2.53 µM) was 0.49 and the relative viability ([3]; first compound 8 µM) was 0.333. It also gave a relative viability ([4]; first compound 0.08 µM) of 0.367, a relative viability ([4]; first compound 0.253 µM) of 0.307 and a relative viability ([4]; first compound 0.8 µM) of 0.301. The relative viability ([4]; first compound 2.53 µM) was 0.29 and the relative viability ([4]; first compound 8 µM) was 0.219.
